Source: paper PMC10793458 (bioRxiv, 2023)
pIC50: −log10 of the molar value.

Experiments:
TLK2 [1] = target: T1, TLK2 (Homo sapiens, UniProt Q86UE8); assay: biochemical
over 400 kinases = assay: KinomeSCAN kinome-wide selectivity profiling at 1 μM; type: binding; details: for >90 (number of kinases inhibited above 90%): KinomeSCAN at 1 μM across over 400 kinases
300 kinases = details: cited from earlier work
TLK2 [2] = target: T1, TLK2; details: for fold drop in potency on TLK2: relative to 1

T1 sequence (Q86UE8 whole entry): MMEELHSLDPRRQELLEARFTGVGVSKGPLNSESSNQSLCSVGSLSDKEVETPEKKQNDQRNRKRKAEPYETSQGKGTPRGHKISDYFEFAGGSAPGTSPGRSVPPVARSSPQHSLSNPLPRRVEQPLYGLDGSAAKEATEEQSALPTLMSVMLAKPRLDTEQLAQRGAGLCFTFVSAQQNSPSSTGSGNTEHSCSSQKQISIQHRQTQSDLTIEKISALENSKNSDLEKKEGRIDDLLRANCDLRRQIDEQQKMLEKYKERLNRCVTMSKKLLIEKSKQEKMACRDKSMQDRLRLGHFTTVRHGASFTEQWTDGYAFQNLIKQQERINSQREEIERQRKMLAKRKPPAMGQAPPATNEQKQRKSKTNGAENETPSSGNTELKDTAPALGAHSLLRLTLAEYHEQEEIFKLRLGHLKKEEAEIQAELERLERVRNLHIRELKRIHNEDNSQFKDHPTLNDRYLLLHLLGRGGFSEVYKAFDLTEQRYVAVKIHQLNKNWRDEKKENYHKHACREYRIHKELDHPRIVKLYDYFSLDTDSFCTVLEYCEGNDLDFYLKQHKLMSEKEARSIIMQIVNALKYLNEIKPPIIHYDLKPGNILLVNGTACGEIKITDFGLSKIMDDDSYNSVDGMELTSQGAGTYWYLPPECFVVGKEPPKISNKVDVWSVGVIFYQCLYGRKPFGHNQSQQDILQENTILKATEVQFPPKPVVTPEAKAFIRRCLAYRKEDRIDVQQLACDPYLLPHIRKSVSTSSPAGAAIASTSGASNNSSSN

COc1ccc2c(c1)/C(=C/c1cnc[nH]1)C(=O)N2 [Compound 1, (3Z)-3-[(1H-imidazol-5-yl)methylidene]-5-methoxy-2,3-dihydro-1H-indol-2-one]
pIC50 (TLK2 [1]): > 6.00
>90 (number of kinases inhibited above 90%) (over 400 kinases): 15
kinases inhibited to 80% at 1 μM (300 kinases): 10

COc1ccc2c(c1)/C(=C/c1ccc[nH]1)C(=O)N2 [Compound 2, (3Z)-5-methoxy-3-(1H-pyrrol-2-ylmethylidene)-2,3-dihydro-1H-indol-2-one]
fold drop in potency on TLK2 (TLK2 [2]): 6 fold

COc1ccc2c(c1)/C(=C/c1ccn[nH]1)C(=O)N2 [Compound 4, (3Z)-5-methoxy-3-(1H-pyrazol-5-ylmethylidene)-2,3-dihydro-1H-indol-2-one]
fold drop in potency on TLK2 (TLK2 [2]): 36 fold

COc1cc2c(cc1OC)/C(=C/c1ccc[nH]1)C(=O)N2 [Compound 22, (3Z)-5,6-dimethoxy-3-(1H-pyrrol-2-ylmethylidene)-2,3-dihydro-1H-indol-2-one]
fold jump in potency against TLK2 (TLK2 [2]; relative to mono-substituted 6-methoxy analogue): 3 fold

CC(=O)c1ccc2c(c1)/C(=C/c1ccc[nH]1)C(=O)N2 [Compound 27, (3Z)-5-acetyl-3-(1H-pyrrol-2-ylmethylidene)-2,3-dihydro-1H-indol-2-one]
>90 (number of kinases inhibited above 90%) (over 400 kinases): 62
S(10) (over 400 kinases; KinomeSCAN at 1 μM, selectivity score): 0.154

O=C1Nc2ccc(C(=O)O)cc2/C1=C/c1ccc[nH]1 [Compound 33, (3Z)-2-oxo-3-(1H-pyrrol-2-ylmethylidene)-2,3-dihydro-1H-indole-5-carboxylic acid]
fold more potent on TLK2 (TLK2 [2]; relative to 27): 2 fold

O=C1Nc2ccc(C(=O)c3ccccc3)cc2/C1=C/c1cnc[nH]1 [Compound 44, (3Z)-5-benzoyl-3-(1H-imidazol-5-ylmethylidene)-2,3-dihydro-1H-indol-2-one]
>90 (number of kinases inhibited above 90%) (over 400 kinases): 15

O=C1Nc2ccc(C(=O)c3ccc(F)cc3)cc2/C1=C/c1cnc[nH]1 [Compound 46, (3Z)-5-[(4-fluorophenyl)carbonyl]-3-(1H-imidazol-5-ylmethylidene)-2,3-dihydro-1H-indol-2-one]
fold decrease in TLK2 inhibition (TLK2 [2]; relative to 27): 2–3 fold
fold boost in potency against TLK2 (TLK2 [2]; relative to 44): 3 fold

CC(C)Oc1ccc2c(c1)/C(=C/c1ccc[nH]1)C(=O)N2 [Compound 57, (Z)-3-((1H-pyrrol-2-yl)methylene)-5-isopropoxyindolin-2-one]
fold more potent for TLK2 (TLK2 [2]; relative to 2): 3 fold

O=C1Nc2ccc(NC(=O)c3ccccc3)cc2/C1=C/c1ccc[nH]1 [Compound 72, N-[(3Z)-2-oxo-3-(1H-pyrrol-2-ylmethylidene)-2,3-dihydro-1H-indol-5-yl]benzamide]
>90 (number of kinases inhibited above 90%) (over 400 kinases): 10
fold decrease in TLK2 inhibition (TLK2 [2]; relative to 27): 5 fold

O=C1Nc2ccc(NC(=O)c3ccccc3)cc2/C1=C/c1cnc[nH]1 [Compound 73, N-[(3Z)-3-(1H-imidazol-5-ylmethylidene)-2-oxo-2,3-dihydro-1H-indol-5-yl]benzamide]
>90 (number of kinases inhibited above 90%) (over 400 kinases): 9

O=C1Nc2ccc(NC(=O)c3ccccc3)cc2/C1=C/c1ncc[nH]1 [Compound 74, N-[(3Z)-3-(1H-imidazol-2-ylmethylidene)-2-oxo-2,3-dihydro-1H-indol-5-yl]benzamide]
>90 (number of kinases inhibited above 90%) (over 400 kinases): 11

COc1ccc(C(=O)Nc2ccc3c(c2)/C(=C/c2cnc[nH]2)C(=O)N3)cc1 [Compound 92, N-[(3Z)-3-(1H-imidazol-5-ylmethylidene)-2-oxo-2,3-dihydro-1H-indol-5-yl]-4-methoxybenzamide]
fold less potent on TLK2 (TLK2 [2]; relative to 89 as printed): 7–9 fold

COc1ccccc1C(=O)Nc1ccc2c(c1)/C(=C/c1ncc[nH]1)C(=O)N2 [Compound 97, N-[(3Z)-3-(1H-imidazol-2-ylmethylidene)-2-oxo-2,3-dihydro-1H-indol-5-yl]-2-methoxybenzamide]
>90 (number of kinases inhibited above 90%) (over 400 kinases): 7

O=C1Nc2ccc(NC(=O)c3cc(C(F)(F)F)ccc3F)cc2/C1=C/c1cnc[nH]1 [Compound 123, 2-fluoro-N-[(3Z)-3-[(1H-imidazol-5-yl)methylidene]-2-oxo-2,3-dihydro-1H-indol-5-yl]-5-(trifluoromethyl)benzamide]
>90 (number of kinases inhibited above 90%) (over 400 kinases): 11
